In article PMC12373499 (Nature Metabolism, 2025):
Where a SMILES comes first, the peptide text is derived from it. [ ]: non-standard residue; d: D form. The star is where a group is joined. X1 = CN1C(=CC=CC=CC2=[N+](CCCCCC(=O)NCCN3C(=O)CC(*)C3=O)c3ccccc3C2(C)C)C(C)(C)c2ccccc21; Aib = CC(C)(N)C(=O)O

Legend:
MIN6-CB4 β cells = test: MIN6-CB4 cell fluorescent probe labelling, colocalization; type: cell-based
Method: MIN6-CB4 cells were generated and phenotyped, as previously described. Cells were grown to 70% confluency in MIN6 media (DMEM High Glucose supplemented with 15% FBS, 71 μM 2-mercaptoethanol, 2 mM glutamine, 100 units ml^−1 penicillin, 100 μg ml^−1 streptomycin). Cells were then seeded in 100 μl MIN6 media per well, on a glass-bottomed 96-well imaging plate previously coated with poly-L-lysine 0.01%.
(§1) Probe labelling was analysed using corrected total cell fluorescence, which is integrated density − (area of selected cell × mean fluorescence of background readings)[52],[53]. Colocalization was determined using Manders’ coefficient, which calculates the proportion of pixels in one channel that also show intensity from both channels. Full width at half maximum was used to analyse labelling patterns at the membrane versus cytoplasm. All analyses were performed in ImageJ (NIH), with brightness and contrast linearly adjusted across the entire image for presentation purposes and applied equally between all states under examination.

SC-islets = test: Labelling of iPS cell-derived islet-like structures (SC-islets); type: cell-based, human; details: n = 12 SC-islets from two differentiations
Method: For immunostaining, labelled islets were washed three times with PBS, then incubated with 2–4% formalin for 15 min at room temperature (16–25 °C). Islets were again washed three times with PBS, then incubated in permeabilizing blocking buffer for 1 h at room temperature before incubation with primary antibody overnight at 4 °C. The following day, islets were incubated with secondary antibody for 2 h at room temperature before mounting onto microscope slides with […] HardSet with DAPI or Everbrite Hardset. Primary and secondary antibodies are listed in Supplementary Table 5.
Human iPS cells (ALSTEM, iPS11) were maintained on iPS cell-qualified Matrigel (Corning, 354277) in mTeSR+ media (StemCell Technologies, 05826). ALSTEM iPS11 cells were authenticated at source by testing for expression of OCT4 and TRA-1-60, as well as alkaline phosphatase activity. Differentiation to islet-like structures (SC-islets) was carried out in a suspension-based, magnetic CELLSPIN bioreactor system ([…]). Differentiation media was changed daily by letting spheres settle by gravity for 3–10 min. Most of the supernatant was removed by aspiration; fresh media was added and bioreactors were placed back on the stirrer system. SC-islet differentiation was based on published protocols[35],[49]
as §1

[1] = daLUXendin660 (tirz Cy5 500nM) vs sGIP549 (JB2228 100nM), image 2022.05.06 1-1
[2] = daLUXendin660 (tirz Cy5 500nM) vs sGIP549 (JB2228 100nM), image 2022.05.06 1-2
[3] = daLUXendin660 (tirz Cy5 500nM) vs sGIP549 (JB2228 100nM), image 2022.05.06 1-3
[4] = daLUXendin660 (tirz Cy5 500nM) vs sGIP549 (JB2228 100nM), image 2022.05.06 1-4
[5] = daLUXendin660 (tirz Cy5 500nM) vs sGIP549 (JB2228 100nM), image 2022.05.06 2-1
[6] = daLUXendin660 (tirz Cy5 500nM) vs sGIP549 (JB2228 100nM), image 2022.05.06 2-2
[7] = daLUXendin660 (tirz Cy5 500nM) vs sGIP549 (JB2228 100nM), image 2022.05.06 2-3
[8] = daLUXendin660 (tirz Cy5 500nM) vs sGIP549 (JB2228 100nM), image 2022.05.06 2-4
[9] = daLUXendin660 (tirz cy5 500nM) vs sGIP549 (JB2228 100nM), image 2022.05.12 1-1
[10] = daLUXendin660 (tirz cy5 500nM) vs sGIP549 (JB2228 100nM), image 2022.05.12 1-2
[11] = daLUXendin660 (tirz cy5 500nM) vs sGIP549 (JB2228 100nM), image 2022.05.12 1-3
[12] = daLUXendin660 (tirz cy5 500nM) vs sGIP549 (JB2228 100nM), image 2022.05.12 1-4
[13] = daLUXendin660 (tirz cy5 500nM) vs sGIP549 (JB2228 100nM), image 2022.05.12 2-1
[14] = daLUXendin660 (tirz cy5 500nM) vs sGIP549 (JB2228 100nM), image 2022.05.12 2-2
[15] = daLUXendin660 (tirz cy5 500nM) vs sGIP549 (JB2228 100nM), image 2022.05.12 2-3
[16] = daLUXendin660 (tirz cy5 500nM) vs sGIP549 (JB2228 100nM), image 2022.05.12 2-4

What does the source list for `CC[C@H](C)[C@H](NC(=O)[C@H](CC(C)C)NC(=O)[C@H](Cc1c[nH]c2ccccc12)NC(=O)[C@H](CCC(N)=O)NC(=O)[C@@H](NC(=O)[C@H](Cc1ccccc1)NC(=O)[C@H](C)NC(=O)[C@H](CCCCN)NC(=O)[C@H](CCC(N)=O)NC(=O)[C@H](C)NC(=O)[C@@H](NC(=O)[C@H](CCCCN)NC(=O)[C@H](CC(=O)O)NC(=O)[C@H](CC(C)C)NC(=O)C(C)(C)NC(=O)[C@@H](NC(=O)[C@H](CO)NC(=O)[C@H](Cc1ccc(O)cc1)NC(=O)[C@H](CC(=O)O)NC(=O)[C@H](CO)NC(=O)[C@@H](NC(=O)[C@H](Cc1ccccc1)NC(=O)[C@@H](NC(=O)CNC(=O)[C@H](CCC(=O)O)NC(=O)C(C)(C)NC(=O)[C@@H](N)Cc1ccc(O)cc1)[C@@H](C)O)[C@@H](C)O)[C@@H](C)CC)[C@@H](C)CC)C(C)C)C(=O)N[C@@H](C)C(=O)NCC(=O)NCC(=O)N1CCC[C@H]1C(=O)N[C@@H](CO)C(=O)N[C@@H](CO)C(=O)NCC(=O)N[C@@H](C)C(=O)N1CCC[C@H]1C(=O)N1CCC[C@H]1C(=O)N1CCC[C@H]1C(=O)N[C@@H](CSC1CC(=O)N(CCNC(=O)CCCCC[N+]2=C(C=CC=CC=C3N(C)c4ccccc4C3(C)C)C(C)(C)c3ccccc32)C1=O)C(N)=O` (stereo partly drawn) [daLUXendin660] (H-Y[Aib]EGTFTSDYSI[Aib]LDKIAQKAFVQWLIAGGPSSGAPPPC(X1)-NH2)?
Pearson's (MIN6-CB4 β cells; daLUXendin660 (tirz Cy5 500nM) vs LUXendin551 (100nM), image 2022.05.12 2-4): 0.914; Manders' R (MIN6-CB4 β cells; [1]): 0.9; Pearson's (MIN6-CB4 β cells; [1]): 0.838; Manders' R (MIN6-CB4 β cells; [2]): 0.901; Pearson's (MIN6-CB4 β cells; [2]): 0.809; Manders' R (MIN6-CB4 β cells; [3]): 0.886; Pearson's (MIN6-CB4 β cells; [3]): 0.756; Manders' R (MIN6-CB4 β cells; [4]): 0.894; Pearson's (MIN6-CB4 β cells; [4]): 0.818; Manders' R (MIN6-CB4 β cells; [5]): 0.899; Pearson's (MIN6-CB4 β cells; [5]): 0.824; Manders' R (MIN6-CB4 β cells; [6]): 0.894; Pearson's (MIN6-CB4 β cells; [6]): 0.796; Manders' R (MIN6-CB4 β cells; [7]): 0.901; Pearson's (MIN6-CB4 β cells; [7]): 0.822; Manders' R (MIN6-CB4 β cells; [8]): 0.878; Pearson's (MIN6-CB4 β cells; [8]): 0.769; Manders' R (MIN6-CB4 β cells; [9]): 0.862; Pearson's (MIN6-CB4 β cells; [9]): 0.834; Manders' R (MIN6-CB4 β cells; [10]): 0.735; Pearson's (MIN6-CB4 β cells; [10]): 0.645; Manders' R (MIN6-CB4 β cells; [11]): 0.775; Pearson's (MIN6-CB4 β cells; [11]): 0.722; Manders' R (MIN6-CB4 β cells; [12]): 0.833; Pearson's (MIN6-CB4 β cells; [12]): 0.821; Manders' R (MIN6-CB4 β cells; [13]): 0.823; Pearson's (MIN6-CB4 β cells; [13]): 0.764; Manders' R (MIN6-CB4 β cells; [14]): 0.748; Pearson's (MIN6-CB4 β cells; [14]): 0.736; Manders' R (MIN6-CB4 β cells; [15]): 0.968; Pearson's (MIN6-CB4 β cells; [15]): 0.975; Manders' R (MIN6-CB4 β cells; [16]): 0.784; Pearson's (MIN6-CB4 β cells; [16]): 0.683; corrected total cell fluorescence, α cells (SC-islets; GCG+ cells): 2.30 × 10^5 ± 1.59 × 10^5 AU; corrected total cell fluorescence, β cells (SC-islets; INS+ cells): 3.60 × 10^5 ± 2.58 × 10^5 AU; corrected total cell fluorescence, δ cells (SC-islets; SST+ cells): 2.16 × 10^5 ± 1.46 × 10^5 AU
